# Earlier results in patent US7740874B2, “Method of making a lanolin free absorption base” (Quintessa Corporation, priority 2002, dated 2010).
# Conditions: hydrophilic-lipophilic balance
substance,measurement,value
methyl glucose dioleate [emulsifier],HLB,5
